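Protocol summary: plate cells (96-well), add compound at 5 concentrations, incubate 48 h, interpolate endpoints linearly. GI50 is the concentration that inhibits growth by half.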 Active and inactive are the calls of the source. Cut-off read from the data, not from the text of the source: active = GI50 up to about 1.1 µM and inactive = higher.
Assays:
Assay in all cases: NCI-60 cell line screen, 48 h
786-0 = system: 786-0
A549 = system: A549
ACHN = system: ACHN
CAKI-1 = system: CAKI-1
CCRF-CEM = system: CCRF-CEM
COLO 205 = system: COLO 205
DLD-1 = system: DLD-1
DMS-114 = system: DMS-114
DMS-273 = system: DMS-273
EKVX = system: EKVX
HCC 2998 = system: HCC 2998
HCT-116 = system: HCT-116
HCT-15 = system: HCT-15
HOP-18 = system: HOP-18
HOP-62 = system: HOP-62
HOP-92 = system: HOP-92
HT-29 = system: HT-29
IGROV-1 = system: IGROV-1
K562 = system: K562
KM-20L2 = system: KM-20L2
LOX IMVI = system: LOX IMVI
LXFL 529 = system: LXFL 529
M14 = system: M14
M19-MEL = system: M19-MEL
MOLT-4 = system: MOLT-4
Malme-3M = system: Malme-3M
NCI-H226 = system: NCI-H226
NCI-H23 = system: NCI-H23
NCI-H460 = system: NCI-H460
NCI-H522 = system: NCI-H522
OVCAR-4 = system: OVCAR-4
OVCAR-5 = system: OVCAR-5
OVCAR-8 = system: OVCAR-8
RPMI-8226 = system: RPMI-8226
RXF 393 = system: RXF 393
SF-268 = system: SF-268
SF-539 = system: SF-539
SK-MEL-28 = system: SK-MEL-28
SK-MEL-2 = system: SK-MEL-2
SK-MEL-5 = system: SK-MEL-5
SK-OV-3 = system: SK-OV-3
SN12C = system: SN12C
SNB-19 = system: SNB-19
SNB-75 = system: SNB-75
SNB-78 = system: SNB-78
SW-620 = system: SW-620
TK-10 = system: TK-10
U-251 = system: U-251
UACC-257 = system: UACC-257
UACC-62 = system: UACC-62
UO-31 = system: UO-31
XF498 = system: XF498
HL-60 = system: HL-60
KM12 = system: KM12
SF-295 = system: SF-295
SR = system: SR
A498 = system: A498
OVCAR-3 = system: OVCAR-3

O=C(O)c1ccccc1NS(=O)(=O)c1ccc(Cl)cc1
GI50 (786-0): > 100 µM (inactive) | GI50 (A549): > 100 µM (inactive) | GI50 (ACHN): > 100 µM (inactive) | GI50 (CAKI-1): > 100 µM (inactive) | GI50 (CCRF-CEM): > 100 µM (inactive) | GI50 (COLO 205): > 100 µM (inactive) | GI50 (DLD-1): > 100 µM (inactive) | GI50 (DMS-114): > 100 µM (inactive) | GI50 (DMS-273): > 100 µM (inactive) | GI50 (EKVX): > 100 µM (inactive) | GI50 (HCC 2998): > 100 µM (inactive) | GI50 (HCT-116): > 100 µM (inactive) | GI50 (HCT-15): > 100 µM | GI50 (HOP-18): > 100 µM (inactive) | GI50 (HOP-62): > 100 µM (inactive) | GI50 (HOP-92): 19 µM (inactive) | GI50 (HT-29): > 100 µM (inactive) | GI50 (IGROV-1): > 100 µM (inactive) | GI50 (K562): > 100 µM (inactive) | GI50 (KM-20L2): > 100 µM (inactive) | GI50 (LOX IMVI): > 100 µM (inactive) | GI50 (LXFL 529): > 100 µM (inactive) | GI50 (M14): > 100 µM (inactive) | GI50 (M19-MEL): > 100 µM (inactive) | GI50 (MOLT-4): > 100 µM (inactive) | GI50 (Malme-3M): > 100 µM (inactive) | GI50 (NCI-H226): > 100 µM (inactive) | GI50 (NCI-H23): > 100 µM (inactive) | GI50 (NCI-H460): > 100 µM (inactive) | GI50 (NCI-H522): 54 µM (inactive) | GI50 (OVCAR-4): > 100 µM (inactive) | GI50 (OVCAR-5): > 100 µM (inactive) | GI50 (OVCAR-8): > 100 µM (inactive) | GI50 (RPMI-8226): > 100 µM (inactive) | GI50 (RXF 393): > 100 µM (inactive) | GI50 (SF-268): > 100 µM (inactive) | GI50 (SF-539): > 100 µM (inactive) | GI50 (SK-MEL-28): > 100 µM (inactive) | GI50 (SK-MEL-2): > 100 µM (inactive) | GI50 (SK-MEL-5): > 100 µM (inactive) | GI50 (SK-OV-3): > 100 µM (inactive) | GI50 (SN12C): > 100 µM (inactive) | GI50 (SNB-19): > 100 µM (inactive) | GI50 (SNB-75): > 100 µM (inactive) | GI50 (SNB-78): > 100 µM (inactive) | GI50 (SW-620): > 100 µM (inactive) | GI50 (TK-10): > 100 µM (inactive) | GI50 (U-251): > 100 µM (inactive) | GI50 (UACC-257): > 100 µM (inactive) | GI50 (UACC-62): > 100 µM (inactive) | GI50 (UO-31): > 100 µM (inactive) | GI50 (XF498): > 100 µM (inactive)

Cn1c(=O)[nH]c2c(c1=O)C(=O)CN2
GI50 (A549): > 100 µM (inactive) | GI50 (ACHN): > 10 µM (inactive) | GI50 (CAKI-1): > 100 µM (inactive) | GI50 (CCRF-CEM): > 100 µM (inactive) | GI50 (COLO 205): > 100 µM (inactive) | GI50 (DLD-1): > 100 µM (inactive) | GI50 (DMS-114): > 100 µM (inactive) | GI50 (DMS-273): > 100 µM (inactive) | GI50 (EKVX): > 100 µM (inactive) | GI50 (HCC 2998): > 100 µM (inactive) | GI50 (HCT-116): > 100 µM (inactive) | GI50 (HCT-15): > 100 µM | GI50 (HL-60): > 100 µM (inactive) | GI50 (HOP-18): > 100 µM (inactive) | GI50 (HOP-92): < 0.01 µM (active) | GI50 (IGROV-1): > 100 µM (inactive) | GI50 (K562): > 100 µM (inactive) | GI50 (KM-20L2): > 100 µM (inactive) | GI50 (KM12): > 100 µM (inactive) | GI50 (LOX IMVI): > 100 µM (inactive) | GI50 (LXFL 529): > 100 µM (inactive) | GI50 (M14): > 100 µM (inactive) | GI50 (M19-MEL): > 100 µM (inactive) | GI50 (MOLT-4): > 100 µM (inactive) | GI50 (Malme-3M): > 100 µM (inactive) | GI50 (NCI-H226): 36.2 µM (inactive) | GI50 (NCI-H460): > 100 µM (inactive) | GI50 (OVCAR-4): > 100 µM (inactive) | GI50 (OVCAR-5): > 100 µM (inactive) | GI50 (OVCAR-8): > 100 µM (inactive) | GI50 (RPMI-8226): > 100 µM (inactive) | GI50 (RXF 393): > 100 µM (inactive) | GI50 (SF-268): > 100 µM (inactive) | GI50 (SF-295): > 100 µM (inactive) | GI50 (SF-539): > 100 µM (inactive) | GI50 (SK-MEL-28): > 100 µM (inactive) | GI50 (SK-MEL-2): > 100 µM (inactive) | GI50 (SK-MEL-5): > 100 µM (inactive) | GI50 (SK-OV-3): > 100 µM (inactive) | GI50 (SN12C): > 100 µM (inactive) | GI50 (SNB-19): > 100 µM (inactive) | GI50 (SNB-75): > 100 µM (inactive) | GI50 (SNB-78): > 100 µM (inactive) | GI50 (SR): > 100 µM (inactive) | GI50 (SW-620): > 100 µM (inactive) | GI50 (TK-10): > 100 µM (inactive) | GI50 (U-251): > 100 µM (inactive) | GI50 (UACC-257): > 100 µM (inactive) | GI50 (UO-31): > 100 µM (inactive) | GI50 (XF498): > 100 µM (inactive)

O=c1[nH]cnc2c1nnn2C1C=C(CO)C(O)C1O (configuration not stated)
GI50 (786-0): > 100 µM (inactive) | GI50 (A498): > 100 µM (inactive) | GI50 (A549): > 100 µM (inactive) | GI50 (ACHN): > 100 µM (inactive) | GI50 (CAKI-1): > 100 µM (inactive) | GI50 (CCRF-CEM): > 100 µM (inactive) | GI50 (COLO 205): > 100 µM (inactive) | GI50 (DLD-1): > 100 µM (inactive) | GI50 (DMS-114): 59.2 µM (inactive) | GI50 (DMS-273): 23.5 µM (inactive) | GI50 (EKVX): > 100 µM (inactive) | GI50 (HCC 2998): > 100 µM (inactive) | GI50 (HCT-116): 53.7 µM (inactive) | GI50 (HCT-15): > 100 µM | GI50 (HOP-18): > 100 µM (inactive) | GI50 (HOP-62): > 100 µM (inactive) | GI50 (HOP-92): > 100 µM (inactive) | GI50 (HT-29): > 100 µM (inactive) | GI50 (IGROV-1): > 100 µM (inactive) | GI50 (K562): > 100 µM (inactive) | GI50 (KM-20L2): > 100 µM (inactive) | GI50 (KM12): > 100 µM (inactive) | GI50 (LOX IMVI): 30.8 µM (inactive) | GI50 (LXFL 529): > 100 µM (inactive) | GI50 (M14): > 100 µM (inactive) | GI50 (M19-MEL): > 100 µM (inactive) | GI50 (MOLT-4): > 100 µM (inactive) | GI50 (NCI-H226): > 100 µM (inactive) | GI50 (NCI-H23): > 100 µM (inactive) | GI50 (NCI-H460): > 100 µM (inactive) | GI50 (OVCAR-3): > 100 µM (inactive) | GI50 (OVCAR-4): > 100 µM (inactive) | GI50 (OVCAR-5): > 100 µM (inactive) | GI50 (OVCAR-8): > 100 µM (inactive) | GI50 (RPMI-8226): > 100 µM (inactive) | GI50 (RXF 393): > 100 µM (inactive) | GI50 (SF-268): 74.1 µM (inactive) | GI50 (SF-295): > 100 µM (inactive) | GI50 (SF-539): > 100 µM (inactive) | GI50 (SK-MEL-28): > 100 µM (inactive) | GI50 (SK-MEL-2): > 100 µM (inactive) | GI50 (SK-MEL-5): > 100 µM (inactive) | GI50 (SK-OV-3): > 100 µM (inactive) | GI50 (SN12C): > 100 µM (inactive) | GI50 (SNB-19): > 100 µM (inactive) | GI50 (SNB-75): > 100 µM (inactive) | GI50 (SNB-78): > 100 µM (inactive) | GI50 (SR): > 100 µM (inactive) | GI50 (SW-620): > 10 µM (inactive) | GI50 (TK-10): > 100 µM (inactive) | GI50 (U-251): > 100 µM (inactive) | GI50 (UACC-257): > 100 µM (inactive) | GI50 (UACC-62): > 100 µM (inactive) | GI50 (UO-31): > 100 µM (inactive) | GI50 (XF498): > 100 µM (inactive)

From ChEMBL document CHEMBL1201862, “PubChem BioAssay data set” (2004)
